Measured values published in patent US7256279B2, “Protein having ribonucleotide reductase activity and DNA thereof” (Takeda Pharmaceutical Company Limited, priority 1999, dated 2007).

Experiments:
Type in all cases: cell-based
MCF7 cells [1] = experiment: DNA repair activity through ribonucleotide reductase activity ([3H]-CDP converted to [3H]-dCTP in damaged DNA) after oligonucleotide introduction; conditions: 14 Gy γ-ray irradiation 4 hours after lipofectin introduction, cells collected after 0, 24 and 48 hours (FIG. 5)
Procedure: DNA repair activity through ribonucleotide reductase activity was measured by converting [^3H]-CDP to [^3H]-dCTP through ribonucleotide reductase in cells, in which the DNA had been damaged, and measuring the radioactivity of [^3H]-dCTP in the damaged DNA.
1×10^6 MCF7 cells were propagated on 10 cm petri dishes, cellular DNA was damaged (14 Gy γ-ray irradiation) 24 hours later, and after 0, 6, 24 and 48 hours the cells were harvested. After washing the cells with Solution A (150 mM sucrose, 80 mM KCl, 35 mM Hepes (pH 7.4), 5 mM potassium phosphate (pH 7.4), 5 mM MgCl2, 0.5 mM CaCl2), these cells were treated for 1 minute at 4° C. with Solution A containing 0.25 mg/ml lysolecithin. […] 75 μl of 0.2N NaOH was added to the DNA obtained, which was then incubated for 30 minutes at 37° C. and mixed with 5 ml of AQUASOL-2 (Packard), and radioactivity was measured with an Aloka LSC-5100 liquid scintillation counter. […]
2×10^6 MCF7 cells were propagated on 10 cm petri dishes, and after 24 hours a TP53R2H antisense oligonucleotide (AS3) a sense oligonucleotide (SE3) and a p53 antisense oligonucleotide (p53AS) were introduced according to attached protocol using a lipofectin reagent (GIBCO BRL). […] DNA repair activity was then measured in the same way as in Example 4 above.

MCF7 cells [2] = experiment: Short-term cell survival (cell numbers counted every day for 6 days) after oligonucleotide introduction and DNA damage; conditions: in both the short- and long-term, after DNA damage (Table 1 and FIG. 6)
Procedure: (§1) Short-term and long-term cell survival rates were also measured when TP53R2H expression was suppressed with an antisense oligonucleotide and DNA was damaged.
(§2) 2×10^6 MCF7 cells) were propagated on 10 cm Petri dishes, and after 24 hours a p53R2 antisense oligonucleotide (AS3), a sense oligonucleotide (SE3) and a p53 antisense oligonucleotide (p53AS) were introduced using a lipofectin reagent. 4 hours later the cellular DNA was damaged (3 or 14 Gy γ-ray irradiation, adiamycin 0.2 μg/ml, UV 10 J/m^2).
(§3) In order to study short-term cell survival, the cells were stripped immediately after DNA damage and re-propagated on 6-hole plates to a density of 3×10^5, and cell numbers were counted every day for 6 days. To study long-term cell survival, the cells were re-propagated after DNA damage on 10 cm plates to a density of 1×10^4 or 1×10^3, and the number of colonies 1 mm or more in diameter was counted after three weeks and expressed as a percentage.

MCF7 cells [3] = experiment: Long-term cell survival (colony count after three weeks) after oligonucleotide introduction and DNA damage; conditions: colonies counted after three weeks
Procedure: as §1, §2, §3

Substance | DNA repair activity (MCF7 cells [1]) | sensitivity to DNA damage / cell death (MCF7 cells [2]) | long-term cell survival (number of colonies 1 mm or more in diameter, expressed as a percentage) (MCF7 cells [3]; Adriamycin (0.2 μg/ml)) | long-term cell survival (number of colonies 1 mm or more in diameter, expressed as a percentage) (MCF7 cells [3]; UV (10 J/m2)) | long-term cell survival (number of colonies 1 mm or more in diameter, expressed as a percentage) (MCF7 cells [3]; γ-radiation (3Gy))
AsCsAsTsTsTsAsCsCsTsCsAsTsCsCsT (ACATTTACCTCATCCT; all phosphorothioate, sugars by position and methylation of C not given here) [AS3] | DNA repair activity declined | sensitivity to DNA damage increases and cell death is more likely | 16% | 22% | 59%
AsGsGsAsTsGsAsGsGsTsAsAsAsTsGsT (AGGATGAGGTAAATGT; all phosphorothioate, sugars by position not given here) [SE3] |  |  | 100% | 100% | 100%
CsCsCsTsGsCsTsCsCsCsCsCsCsTsGsGsCsTsCsC (CCCTGCTCCCCCCTGGCTCC; all phosphorothioate, sugars by position and methylation of C not given here) [p53AS] | DNA repair activity also declined |  | 10% | 11% | 15%
